Results on two compounds are retold here after PubChem BioAssay AID1963954.

SMILES strings stand for the structures. Calls of active or inactive are those of the source.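 How the source made its calls: active means IL-1b release lowered by over 30% against vehicle-treated cells of the same ATG16L1 genotype; inactive means the rest.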

This assay deals with mouse BMDM IL-1b secretion, LPS+ATP, ELISA. Description: reduction of stimulated IL-1b secretion in BMDMs – cell-based, mouse BMDMs, ATG16L1 wt and T300A, LPS+ATP (AID 1963954). The following applies: at 40 µM, stronger effect = lower value.

In the case of `CS(C)=O`, the normalized IL-1b secretion is 0.05 (inactive) (unstimulated, ATG16L1 T300A); 0 (inactive) (unstimulated, ATG16L1 wt); 1.39 (inactive) (with LPS + ATP, ATG16L1 T300A); 1 (inactive) (with LPS + ATP, ATG16L1 wt).
In the case of `CCC(C)(C)C(=O)C(=O)N1CCCC[C@H]1C(=O)N[C@H](CCc1ccc(OC)cc1)C(=O)N1[C@@H]2CC[C@H]1CC(Nc1nc(NCCc3sc(N)nc3C)nc(N3CCn4ncnc4C3)n1)C2` (stereo partly specified), the normalized IL-1b secretion (with LPS + ATP, ATG16L1 T300A) is 0.39 and the normalized IL-1b secretion (with LPS + ATP, ATG16L1 wt) is 0.37.
